Data: ChEMBL document CHEMBL1144323, “Reversal of anticancer drug resistance by COTC based on intracellular glutathione and glyoxalase I” (Bioorg Med Chem Lett, 2005)

What was measured:
Lactoylglutathione lyase = Lactoylglutathione lyase (Homo sapiens, UniProt Q04760); assay: Inhibitory constant against Glyoxalase I
Homo sapiens = species on record: Homo sapiens; assay: Effect of COTC on GSH level in human pancreatic adenocarcinoma cell was determined at 30 ug/mL of COTC; assay type: functional

Lactoylglutathione lyase, sequence (Q04760 whole entry): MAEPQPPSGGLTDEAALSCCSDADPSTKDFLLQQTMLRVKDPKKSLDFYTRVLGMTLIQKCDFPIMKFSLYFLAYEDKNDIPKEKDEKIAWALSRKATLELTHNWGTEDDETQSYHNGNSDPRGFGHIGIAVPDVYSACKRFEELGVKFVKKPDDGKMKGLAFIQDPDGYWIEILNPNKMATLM

Ki (Lactoylglutathione lyase) [µM]	Compound	Decrease (Homo sapiens) [%]
183	NC(CCC(=O)NC(CSCC1=C[C@@H](O)[C@@H](O)[C@@H](O)C1=O)C(=O)NCC(=O)O)C(=O)O (some centres not stated)	–
–	C/C=C/C(=O)OCC1=C[C@@H](O)[C@@H](O)[C@@H](O)C1=O	40
